The record followed here is patent publication US8124565B2, “Method of protecting a plant propagation material, a plant, and/or plant organs” (priority 2006, dated 2012).

For experiment [1], the system named is Pyrenophora graminea. Briefly: Fungal growth assay, Pyrenophora graminea (microtiter plate, PDB). It counts as cell-based. The following applies: 72 hrs.
Another experiment concerns Gäumannomyces graminis. Briefly: Fungal growth assay, Gäumannomyces graminis (microtiter plate, PDB). It counts as cell-based. The following applies: 72 hrs.
For experiment [2], the system named is Fusarium graminearum. Format: cell-based. The following applies: 48 hrs.
The test system of experiment [3] is Pyrenophora graminea. As to the kind of experiment: Pyrenophora graminea/barley (stripe disease) seed treatment test. It counts as in vivo. The following applies: seed treatment 20 g/100 kg, infected winter barley seeds. As to the method: A-1. Pyrenophora graminea/Barley (Stripe Disease on Barley)
After application of the formulated seed treatment onto P. graminea-infected seeds of winter barley the seeds are sown in trays filled with field soil. The trays are kept in a growth room for 3 weeks at 4° C. After this period the trial is transferred to a greenhouse where a temperature of 12° C. and a 14 hr light period is provided. The following assessments are made: emergence count, final stand count, number of infected plants.

The test system of a further experiment is Rhizoctonia solani. As to the kind of experiment: Rhizoctonia solani/cotton (damping off) seed treatment test. The following applies: seed treatment 200 g/100 kg, cotton seeds in inoculated soil. Format: in vivo. How it is done:
A-2. Rhizoctonia solani/Cotton (Damping Off on Cotton)
A defined amount of mycelium of R. solani is blended with soil and trays are filled with the inoculated soil. The formulated test compounds are applied to cotton seeds. The treated cotton seeds are then sown into the inoculated soil. Until germination the test is stored at 20° C. and a rel. humidity of 90% in the dark. After germination the test is transferred to 25° C. and a rel. humidity of 70% with a photoperiod of 14 h. The evaluation is done by counting the emerged cotton plants and the number of emerged and diseased plants.

The test system of experiment [4] is Fusarium graminearum. It counts as in vivo. The following applies: seed treatment 20 g/100 kg, corn seeds (cv. Magister) in inoculated soil.

Each structure is given as a SMILES string. Where two headings read alike, the source gives them in different places.

For the compound `Cn1cc(C(=O)Nc2ccccc2C2CC2C2CC2)c(C(F)F)n1` (stereo not drawn) [Compound of formula A, reference compound], the “Observed control in % (% Cobs)” value with Pyrenophora graminea [1] (0.25 ppm) was determined as 0%; in the experiment with Gäumannomyces graminis (0.5 ppm), 74.8%; with Fusarium graminearum [2] (0.03125 ppm), 1.6%; in the experiment on Fusarium graminearum [2] (0.0625 ppm), 2.4%; in the experiment on Fusarium graminearum [2] (0.125 ppm), 8.4%; in the experiment with Fusarium graminearum [2] (0.25 ppm) it was 7.8%.

On to `Cc1ccc(C2CC(C)(c3cccnc3)N(C)O2)cc1` (stereo not drawn) [Compound of formula I], for which the activity in the experiment with Pyrenophora graminea [3] is 100%; in the experiment on Rhizoctonia solani, 70%; in the experiment with Fusarium graminearum [4], 100%. Moreover, the “Observed control in % (% Cobs)” value in the experiment on Pyrenophora graminea [1] (0.5 ppm) amounted to 62.3%; in the experiment with Gäumannomyces graminis (0.25 ppm), 26.0%; in the experiment on Fusarium graminearum [2] (0.03125 ppm), 0%; in the experiment with Fusarium graminearum [2] (0.0625 ppm), 3.5%; with Fusarium graminearum [2] (0.125 ppm), 4.4%; in the experiment with Fusarium graminearum [2] (0.25 ppm), 12.5%.
